This is an account of results in ChEMBL document CHEMBL3045712, “Insect antifeedant and growth regulating activities of salannobutyrolactone and desacetylsalannobutyrolactone” (2005).

Common to all, as to format: functional
The subject of experiment [1] is Spodoptera litura. Briefly: Insecticidal activity against third-instar larval stage of Spodoptera litura fed on compound-treated castor leaves assessed as pupal duration time at 5 ug/cm2 (reference value: 8.1 +/- 0.14 days).
For experiment [2], the system named is Spodoptera litura. In words: Insecticidal activity against third-instar larval stage of Spodoptera litura fed on compound-treated castor leaves assessed as pupal mortality at 5 ug/cm2 (reference value: 4.17%).
Experiment [3] concerns Spodoptera litura. Briefly: Insecticidal activity against third-instar larval stage of Spodoptera litura fed on compound-treated castor leaves assessed as total larval duration time at 5 ug/cm2 (reference value: 12.7 +/- 0.89 days).
Experiment [4] relates to Spodoptera litura. Briefly: Insecticidal activity against third-instar larval stage of Spodoptera litura fed on compound-treated castor leaves assessed as larval mortality at 10 ug/cm2 (reference value: 4%).
Experiment [5] has as its system Spodoptera litura. Briefly: Insecticidal activity against third-instar larval stage of Spodoptera litura fed on compound-treated castor leaves assessed as pupal duration time at 10 ug/cm2 (reference value: 8.1 +/- 0.14 days).
Experiment [6] has as its system Spodoptera litura. Briefly: Antifeedant activity against third-instar larval stage of Spodoptera litura fed on compound-treated castor leaves assessed as feeding deterrence index at 5 ug/cm2 by dual choice leaf disc method.
The subject of experiment [7] is Spodoptera litura. Briefly: Insecticidal activity against third-instar larval stage of Spodoptera litura fed on compound-treated castor leaves assessed as total larval duration time at 10 ug/cm2 (reference value: 12.7 +/- 0.89 days).
For experiment [8], the system named is Spodoptera litura. In words: Insecticidal activity against third-instar larval stage of Spodoptera litura fed on compound-treated castor leaves assessed as pupal mortality at 10 ug/cm2 (reference value: 4.17%).
The test system of experiment [9] is Spodoptera litura. Briefly: Antifeedant activity against third-instar larval stage of Spodoptera litura fed on compound-treated castor leaves assessed as feeding deterrence index at 10 ug/cm2 by dual choice leaf disc method.
Experiment [10] deals with Spodoptera litura. In words: Insecticidal activity against third-instar larval stage of Spodoptera litura fed on compound-treated castor leaves assessed as larval mortality at 5 ug/cm2 (reference value: 4%).

The structures appear in SMILES notation.

For orientation: mortality means the percentage killed.

Take `C/C=C(\C)C(=O)O[C@H]1C[C@@H](OC(C)=O)[C@@]2(C(=O)OC)CO[C@H]3[C@@H](O)[C@@](C)([C@]45O[C@@]4(C)[C@@H]4C[C@H]5O[C@@H]5OC=C[C@@]54O)[C@H]4[C@]1(CO[C@]4(O)C(=O)OC)[C@@H]32` [AZADIRACHTIN A]: the Time in [1] is 9.8 days; in experiment [3], 15 days; in experiment [5], 10.14 days; in experiment [7], 16.3 days. Also, the mortality at 5 µg/cm2 in experiment [2] worked out at 33.2%. The mortality at 10 µg/cm2 worked out at 64% in experiment [4] and 40% in experiment [8]. In addition, the results for the FDI in [6] and in [9] were 15.62% and 12.59%, respectively.
For the compound `C/C=C(\C)C(=O)O[C@H]1C[C@@H](O)[C@@]2(C)CO[C@H]3[C@H]4O[C@@H]5C[C@@H](C6=CCOC6=O)C(C)=C5[C@@]4(C)[C@H](CC(=O)OC)[C@]1(C)[C@@H]32` [DESACETYLSALANNOBUTYROLACTONE], the Time in experiment [1] stood at 8.41 days; in experiment [3], 13.1 days; in experiment [5], 8.6 days; in experiment [7], 14.4 days. Also, the mortality at 5 µg/cm2 in experiment [2] is 27.3%; in experiment [10] it was 24%. Also, the mortality at 10 µg/cm2 in experiment [4] was 40%; in [8], 33.3%. For the same compound, the FDI in experiment [6] is listed as 50.45%; in experiment [9], 47.97%.
For `C/C=C(\C)C(=O)O[C@H]1C[C@@H](OC(C)=O)[C@@]2(C)CO[C@H]3[C@H]4O[C@@H]5C[C@@H](C6=CCOC6=O)C(C)=C5[C@@]4(C)[C@H](CC(=O)OC)[C@]1(C)[C@@H]32` [SALANNOBUTYROLACTONE], the Time in [1] amounted to 8.7 days; in experiment [3], 14 days; in experiment [5], 9.4 days; in experiment [7], 15.5 days. The mortality at 5 µg/cm2 in [2] worked out at 30.2%; in experiment [10], 32%. Also, the mortality at 10 µg/cm2 in [4] was determined as 52%; in [8], 37.2%. Also, the FDI in experiment [6] was 39.34%; in experiment [9], 36.69%.
